Assay results published in patent US9668984B2, “Use of compounds to inhibit 5 α-reductase enzyme activity, and pharmaceutical and cosmetic compostions containing them” (GIULIANI S.P.A., priority 2008, dated 2017).
Marks after values point to notes of the source that are not given here.

Legend:
[1] = system: transplanted hair follicles; experiment: Further clinical study: topical scalp treatment around hair transplantation; assay type: in vivo, human; details: once a day from 15 days before to 90 days after the transplant
5α-reductase = experiment: Modulation of 5α-reductase activity (testosterone to DHT conversion, ELISA) in mouse fibroblasts after 48 hours of treatment; assay type: cell-based; details: for % inhibition of 5α-reductase / Total DHT ng (±SE) / Inhibition of 5α-reductase activity in vitro (result in words): 0.1 mg/ml, 48 hours; for % inhibition of 5α-reductase / Total DHT ng (±SE): pre-incubation for 24 hours with testosterone 10 ng/ml; for % inhibition of 5α-reductase: confidence interval; for Total DHT ng (±SE): final table; for Testosterone, cell extract / Testosterone, supernatant / DHT, cell extract / DHT, supernatant / Final DHT, cell extract / Final DHT, supernatant / Total DHT produced: sample 100 μg/ml; for Testosterone, cell extract / Testosterone, supernatant / DHT, cell extract / DHT, supernatant: 48 h; for Testosterone, cell extract: Balb/c-3T3; for Testosterone, supernatant: Balb/c-3T3 pre-incubated 24 h with testosterone 10 ng/ml; for DHT, cell extract / DHT, supernatant: uncorrected measured DHT; for Final DHT, cell extract: corrected for testosterone crosslinking; for Final DHT, supernatant: measured DHT minus bovine serum DHT minus testosterone crosslinking; for Total DHT produced: per flask (supernatant 10 ml + cell extract 0.5 ml); for Inhibition of 5α-reductase activity in vitro (result in words): mouse fibroblasts Balb/c-3T3, versus untreated control
Description: Assessment of the modulation of 5α-reductase activity after treatment for 48 hours with the above-stated compounds in a cell line of mouse fibroblasts.
For this test, the fibroblasts were pretreated with testosterone to increase the basal production of 5α-reductase, then they were treated with the above-mentioned compounds for 48 hours.
At the end of the treatment, the conversion of testosterone into DHT was measured in the treated and untreated cell cultures, using a two-way ELISA. This procedure enables an estimation of the percentage inhibition or stimulation of the specific activity of 5α-reductase.
As a positive control, we used a titrated extract of Serenoa repens (saw palmetto), a plant known in the pharmacopoeia for its capacity to inhibit 5α-reductase and recommended for said purpose in the treatment of prostatic hyperplasia in males.
The cell model used for the in vitro test consisted of mouse fibroblasts Balb/c-3T3. This cell line derives from fibroblasts of […] mouse embryos.
The samples of the above-described compounds were solubilised as follows: • 2,4,6-octatrien-1-ol: 1 mg/ml in absolute ethanol • alternative Boehmeria: 5 mg/ml in growth medium+5% DMSO • traditional Boehmeria: 2.5 mg/ml in growth medium+5% DMSO • Ajuga reptans extract: 5 mg/ml in growth medium+5% DMSO • Finasteride: 5 mg/ml in absolute ethanol • Serenoa repens: 10 μl/ml in absolute ethanol Treatment and Exposure Pre-Incubation
The cells were seeded in 25 cm^2 flasks (T25) in DMEM (Dulbecco's […]) with the addition of 10% FBS (foetal bovine serum). As soon as confluence was achieved, the cultures were treated for 24 hours with 10 ng/ml of testosterone.
After the pre-incubation phase, the cell cultures were treated with said samples at the final concentration of 0.1 mg/ml. The Serenoa repens extract at 0.1 mg/ml was used as a positive control, while the negative control consisted in plates treated with the solvent. Exposure was protracted for 48 hours in the incubator at 37° C., 5% CO2, renewing the medium every 24 hours. Each sample was tested in duplicate.
At the end of the experiment, a cell count was conducted to assess any cytotoxic effects. The of DHT and testosterone content was measured using immunodiagnostic tests (ELISA) in the extracellular (conditioned growth media) and in the intracellular (cell extracts) compartments.
At the end of the experiment, the growth medium was collected from each flask and a cell extract was prepared.
This was done in four stages: • trypsinisation of the cell layer in situ in the flask • centrifugation and collection of the cells in pellets • extraction with Triton X-100 (1% in basal medium) • ultrasonication for 30 minutes. DHT and Testosterone Measurement
The two hormones, DHT and testosterone, were measured both in the supernatant (extracellular DHT/testosterone) and in the cell extracts (intracellular DHT/testosterone).
It is therefore of fundamental importance to determine the quantity of testosterone remaining at the end of the test in order to distinguish it from the newly-synthesised DHT. Moreover, the presence of DHT in foetal bovine serum (FBS), the main component in the growth medium, represents a source of exogenous DHT that must be taken into account in calculating the DHT actually produced by the cells starting from the testosterone.
The method involves the composition of a standard curve, calculated in an appropriate range of concentrations, and uses specific antibodies immobilised on a solid substrate directed against DHT/testosterone, and a reagent that competes for binding to the antibody.

alopecia greata = experiment: Clinical pilot study, group with alopecia greata (area celsi), topical administration on the scalp; assay type: in vivo, human
Description: (§1) A clinical pilot study was also conducted to assess the efficacy of a composition according to the invention in the treatment of male and female androgenetic alopecia and alopecia greata.
(§2) In the composition according to the invention forming the object of this clinical study, said active principle was a salt, and a potassium salt in particular, of 2,4,6-octatrienoic acid, formulated for topical administration on the scalp, in a single daily dose.
Alopecia greata (also called area celsi) is a disease involving sudden hair loss typically giving rise to bald patches (or areas).
A significant characteristic of the evolutional stages of alopecia greata is the presence of “exclamation mark” hairs, so called because they appear tapered towards the base.
For the group of individuals treated, the pilot study only enabled us to identify a trend (clinical improvement, stability, worsening) within the short time span considered, i.e. from the baseline T0 before starting the treatment up to T2 after three months of treatment, based on the following parameters: • hair loss • progression of bald patches on the scalp • presence of exclamation mark hairs Results

androgenetic alopecia = experiment: Clinical pilot study, Group 1: androgenetic alopecia, topical administration on the scalp; assay type: in vivo, human
Description: as §1, §2
Thirty individuals of both genders were recruited (15 males and 15 females) aged between 18 and 55 years, suffering from androgenetic alopecia (grades I-III according to the Hamilton scale for men, and I-II according to the Ludwig scale for women). Since this was a pilot study, an open trial was conducted, administering the composition of the invention.
Exclusion criteria from the study were as follows: • concomitant hormonal and/or pharmacological therapies; • pregnancy and breast-feeding; • systemic hormonal, metabolic and autoimmune diseases; • specific trichological treatments in the previous three months; • concomitant inflammatory diseases of the scalp, e.g. seborrhoeic dermatitis, irritative or allergic dermatitis.
The clinical and dermoscopic assessment of the individuals to treat focused on: hair shaft diameter, presence of a perifollicular halo, evaluation of the anagen phase by epiluminescence study of the bulb.
After the baseline assessment at T0, before starting the treatment, two evaluations after the treatment were conducted, one at T1 after 1 month, and one at T2 after 3 months.
At each follow-up assessment, a clinical evaluation was performed using epiluminescence to establish the hair shaft diameter in a previously-established and marked area (MoleMax II, Dermal Instruments Italia).

[2] = T0 to T2 (three months of treatment)
[3] = T2 after 3 months, mean at T0 0.4 mm
[4] = T2 after 3 months, mean at T0 56%
[5] = single daily topical dose, epiluminescence, follow-up to T2 (3 months)

2,4,6-octatrienoic acid salt
Prevention of premature apoptosis and catagen in transplanted hair follicles (result in words) [1]: promising

C/C=C/C=C/C=C/CO [2,4,6-octatrien-1-ol, 2E,4E,6E-Octatrien-1-ol]
% inhibition of 5α-reductase (5α-reductase): 27-43%
Total DHT ng (±SE) (5α-reductase): 2.3 (±0.1) ng
Testosterone, cell extract (5α-reductase): 1 ng/mL
Testosterone, supernatant (5α-reductase): 1.25 ng/mL
DHT, cell extract (5α-reductase): 450 pg/mL
DHT, supernatant (5α-reductase): 425 pg/mL
Final DHT, cell extract (5α-reductase): 363 pg/mL
Final DHT, supernatant (5α-reductase): 216 pg/mL
Total DHT produced (5α-reductase): 2.34 ng

CC(C)(C)NC(=O)[C@H]1CC[C@H]2[C@@H]3CC[C@H]4NC(=O)C=C[C@]4(C)[C@H]3CC[C@]12C [Finasteride]
Inhibition of 5α-reductase activity in vitro (result in words) (5α-reductase): no significant inhibitory effect
Inhibition of 5α-reductase activity in vitro (result in words) (5α-reductase; listed as finasteride): no real inhibitory effect
% inhibition of 5α-reductase (5α-reductase): 0-15* %
Total DHT ng (±SE) (5α-reductase): 3.6 (±0.3) ng
Testosterone, cell extract (5α-reductase): 3.1 ng/mL
Testosterone, supernatant (5α-reductase): 0 ng/mL
DHT, cell extract (5α-reductase): 400 pg/mL
DHT, supernatant (5α-reductase): 450 pg/mL
Final DHT, cell extract (5α-reductase): 130 pg/mL
Final DHT, supernatant (5α-reductase): 350 pg/mL
Total DHT produced (5α-reductase): 3.57 ng

CC=CC=CC=CC(=O)[O-].[K+] [potassium salt of 2,4,6-octatrienoic acid]
Individuals in whom defluvium of hair in the affected areas diminished (alopecia greata; [2]): 55%
Individuals with stabilisation of the bald patches (alopecia greata; [2]): 15%
Individuals with stoppage in the progression and slight reduction in the extent of the bald patches (alopecia greata; [2]): 43%
Number of exclamation mark hairs at T2, individuals with stabilisation or slight improvement in bald patches (alopecia greata; T2, mean 82% at T0): 46%
Number of exclamation mark hairs at T2, individuals with worsening bald patches (alopecia greata; T2, mean 83% at T0): 82%
Side effects after using the product (alopecia greata; alopecia greata group): None of the individuals revealed any side effects
Individuals treated with global trend towards an improvement (clinical improvement and stabilisation of the bald patches) (alopecia greata; three months of treatment): 58%
Individuals treated with androgenetic alopecia parameters modified in a globally positive manner (androgenetic alopecia; 3 months topical treatment): 83%
Hair shaft diameter at T2, Group A) (androgenetic alopecia; [3]): 0.7 mm
Hair shaft diameter at T2, Group B) (androgenetic alopecia; [3]): 0.6 mm
Hair shaft diameter at T2, Group C) (androgenetic alopecia; [3]): 0.4 mm
Percentage of bulbs in the anagen phase at T2, Group A) (androgenetic alopecia; [4]): 83%
Percentage of bulbs in the anagen phase at T2, Group B) (androgenetic alopecia; [4]): 74%
Percentage of bulbs in the anagen phase at T2, Group C) (androgenetic alopecia; [4]): 61%
Side effects after using the product (androgenetic alopecia; androgenetic alopecia group): None of the individuals showed any side effects
Cases with increase in hair shaft diameter judged highly significant (A) (androgenetic alopecia; [5]): 62%
Cases with increase in hair shaft diameter judged not significant (C) (androgenetic alopecia; [5]): 17%
Cases with increase in hair shaft diameter judged significant (B) (androgenetic alopecia; [5]): 21%
